The values below are quoted from earlier work in patent US20230320382A1 (DSM IP Assets B.V., priority 2018, published 2023).

SMILES strings stand for the structures.

The mark [1] stands for this setting: added to the diet of growing pigs.

As to `O=C(O)c1ccccc1` [Benzoic acid], under setting [1], the “Effect on blood pH” value is recorded as “only slightly reduces” and the “Effect on urine pH” value is listed as “markedly acidifies”. Moreover, the Site of absorption entry (ingested benzoic acid) is reported as “absorbed in the first tract of the small intestine”.
